Consider two molecules from patent US20120034631A1, “ANTI-LYSOPHOSPHOLIPID ANTIBODY DESIGN USING ANTIBODY STRUCTURES” (priority 2010, published 2012).

Marks after values point to notes of the source that are not given here.

One assay relates to ovarian tumor SKOV3. Kind of assay: SKOV3 ovarian tumor progression and cytokines in nude mice. In kind it is in vivo. On the procedure: Human mAb LT3015 reduced ovarian tumor SKOV3 progression and circulating cytokines in biological fluids. Nude mice were engrafted with either 10 mg/kg LT3015, vehicle, or 2 mg/kg paclitaxel (Taxol). After 56 days, mice were sacrificed and the peritoneal cavities were analyzed for tumor burden and ascites fluid accumulation. Tumors were harvested and final tumor weights were determined along with ascites volumes. Data were analyzed by ANOVA and student's t-test analysis. […] Serum and ascites levels of IL-6, IL-8, GM-CSF and VEGF were measured using ELISA kits from R&D systems, Minneapolis Minn.

The subject of assay [1] is CXCL8/IL-8 release, SKOV3 ovarian cells. Nature of the assay: LPA-induced IL-8 release in SKOV3 cells. In kind it is cell-based, human. The conditions noted are these: 1 uM LPA alone (stimulus). On the procedure:
(§1) Anti-LPA antibodies inhibit the LPA-dependant release of human CXCL8/IL-8 in conditioned media of SKOV3 ovarian cells. SKOV3 cells (Lot No 4255558, passage 14) were harvested with 2 ml of 1× Trypsin EDTA (Mediatech Inc, Cat. No 25-053-CV) and resuspended in 8 ml of complete medium (10% FBS, Mediatech Inc. Cat. no 35-011-CV). The cells were centrifuged for 5 min ([…]) and re-suspended in 5 ml of complete medium. Cells were counted in duplicate with 0.4% Trypan blue (10 ul cells plus 90 ul Trypan blue, Invitrogen, Cat. No 15250-061) using a hemocytometer. In a 96-well plate, 1×10^5 cells per well were seeded (final volume 100 ul/well). The cells were allowed to attach and form a confluent monolayer by incubating overnight at 37° C. On the following day, cells were gently washed two times with minimum media (1 mg/ml BSA in McCoy's medium with L-glutamine, Mediatech, Cat. No 10-050-CV). […] The CXCL8/IL-8 levels in each supernatant were measured using the Quantikine human CXCL8/IL-8 ELISA kit according to vendor instructions (R&D Systems, Minneapolis Minn., Cat. No D8000C). The IL-6 levels were measured by ELISA using the Quantikine human IL-6 immunoassay kit (R&D systems, Cat. No. D6050). Data were analyzed by one-way ANOVA followed by Bonferroni's post test and expressed as human IL-8 or human IL-6 fold increase.

The test system of assay [2] is IL-6 release, SKOV3 ovarian cells. Kind of assay: LPA-induced IL-6 release in SKOV3 cells. Particulars: 1 uM LPA alone (stimulus). The format is cell-based, human. The method, then:
as §1

The subject of another assay is SKOV3 cells. Kind of assay: Tumor cell migration in the scratch assay. In kind it is cell-based. The conditions noted are these: 17 hr. On the procedure:
SKOV3 cells were plated at 15,000 cells per well in a 96-well plate. The following day the cells were serum starved in minimal media (McCoy's Media 5a, adjusted to contain L-Glutamine, 2.2 g/L Sodium Bicarbonate, 1% penicillin/streptomycin and 1 mg/ml BSA) for 24 hrs. At time 0 cells were scratched with a p200 pipet tip down the center of each well, washed with minimal media and pictures were taken prior to treatment. Cells were then treated with LPA (C18:1) at 0.2 uM, 1.0 uM and 10 uM concentrations which were pre-incubated at 37° C. with […] in the presence or absence of antibody at 150 ug/ml. Positive control (10% FBS treated cells) and antibody alone added to 1 uM LPA, were also tested. Cells were stimulated for 17 hrs at 37° C. in a 5% CO2 incubator. Pictures were taken again 17 hr post-treatment and % wound closure was measured by adjusting pictures to the same size and measuring the width of the scratch at time 0 and time 17 hr with a ruler. Data were analyzed by Student's t-test.

Consider `CC(=O)O[C@H]1C(=O)[C@@]2(C)[C@H]([C@H](OC(=O)c3ccccc3)[C@]3(O)C[C@H](OC(=O)[C@H](O)[C@@H](NC(=O)c4ccccc4)c4ccccc4)C(C)=C1C3(C)C)[C@]1(OC(C)=O)CO[C@@H]1C[C@@H]2O` [Taxol, paclitaxel], for which, in the assay on ovarian tumor SKOV3 (56 days, LT3015 10 mg/kg, Taxol 2 mg/kg, mean ± S.E., vehicle 1274 ± 209), the “Tumor Burden” value was 381 ± 73 mg. In addition, the “% Reduction (tumor burden)” value with ovarian tumor SKOV3 (56 days, LT3015 10 mg/kg, Taxol 2 mg/kg, versus vehicle) is listed as 70.1%. This molecule also yielded a GM-CSF-ascites with ovarian tumor SKOV3 (LT3015 10 mg/kg (N = 4), Taxol 2 mg/kg (N = 1), vehicle 1200 ± 248.2) of 2054 ± 0 pg/mL. The IL-8-ascites with ovarian tumor SKOV3 (LT3015 10 mg/kg (N = 4), Taxol 2 mg/kg (N = 1), vehicle 2097 ± 132.1) is listed as 2187 ± 0 pg/mL. The molecule also showed a VEGF-ascites in the assay with ovarian tumor SKOV3 (LT3015 10 mg/kg (N = 4), Taxol 2 mg/kg (N = 1), vehicle 3341 ± 202.5) of 3344 ± 0 pg/mL. This molecule displayed an Ascites volume with ovarian tumor SKOV3 (LT3015 10 mg/kg, Taxol 2 mg/kg, vehicle 3.563 ± 1.144) of 0.2 ± 0.0 mL. In the assay on ovarian tumor SKOV3 (LT3015 10 mg/kg, Taxol 2 mg/kg, vehicle 84.56 ± 16.62), the IL-6-serum is given as 29.19 ± 9.568 pg/mL. In the assay with ovarian tumor SKOV3 (LT3015 10 mg/kg, Taxol 2 mg/kg, vehicle 320.5 ± 43.18), this molecule registered a GM-CSF-serum of 340.2 ± 62.98 pg/mL. In the assay with ovarian tumor SKOV3 (LT3015 10 mg/kg, Taxol 2 mg/kg, vehicle 687.6 ± 114.1), this molecule came in with an IL-8-serum of 234.7 ± 83.04 pg/mL. Besides, in the assay on ovarian tumor SKOV3 (animals with ascites / animals, LT3015 10 mg/kg, Taxol 2 mg/kg, vehicle 6/11), the Ascites presence is recorded as 1/7.

Consider Lysophosphatidic acid [LPA], for which the “Human IL-8 Fold Increase (approx).” value in assay [1] was ~7.1## fold. Further, the “Human IL-6 Fold Increase (approx).” value in assay [2] is on record as ~29## fold. The “Percent wound closure (approx.)” value is about 65% in the assay with SKOV3 cells (0.2 uM LPA), about 81% in the assay with SKOV3 cells (1.0 uM LPA) and about 89% with SKOV3 cells (10 uM LPA).
